# Key:
# [1] = test system: Cytochrome c, Bax, Bcl-2, Caspase-3, Caspase-9 in HeLa cells; assay: Western blot of mitochondrial apoptosis markers; type: cell-based, human; conditions: 0.1 and 0.2 μM, 48 h
# Procedure: HeLa cells were seeded at a density of 5 × 10^6 cells per well and attached for 8 h, and then treated with different concentrations of compound 4d for 48 h. After the treatment, the cells were harvested and washed twice with PBS. The harvested cells were lysed with radio-immunoprecipitation assay (RIPA) lysis buffer (Beyotime Biotech., Nantong, China) with 1% cocktail (Sigma-Aldrich, St. Louis, MO, USA). Whole-cell protein lysates were prepared and centrifuged at 12,000 rpm for 10 min at 4 °C. The total proteins were determined using Bradford reagent (Bio-Rad Laboratories, Inc., Hercules, CA, USA). Exactly 40 μg of protein per lane was separated through sodium dodecyl sulphate-polyacrylamide gel electrophoresis and then transferred onto a polyvinylidene difluoride membrane (Millipore, Bedford, MA, USA). The membranes were incubated with each antibody and detected through immunoblot analysis. All of the antibodies were purchased from Cell signalling Technology, Inc. (Boston, MA, USA) and diluted in accordance with the manufacturer’s instruction. Proteins were visualised using a C-Digit® imaging system (LI-COR, Lincoln, NE, USA).
# To further explore whether compound 4d induced apoptosis via the mitochondrial signalling pathway, a number of key protein markers involved in mitochondria-mediated apoptosis were examined by Western blot analysis. The Bcl-2 family members are important regulators of the mitochondrial apoptotic pathway. Two most important members of Bcl-2 family, the anti-apoptotic protein Bcl-2 and the pro-apoptotic protein Bax, are key regulators of this progress. As shown in Figure 6(a), the expression level of Bax was elevated in HeLa cells compared with the control group, whereas the expression level of Bcl-2 was decreased after treatment with compound 4d for 48 h. […] Moreover, cytochrome c is reported as a key protein involved in the activation of the downstream caspases that trigger apoptosis. Caspases are a family of cysteinyl aspartate-specific proteases involved in apoptosis, which can be classified into groups of initiators (caspases 8, 9, and 10) and executioners (caspases 3, 6, and 7)[48]^,[49]. In this assay, we also examined the roles of cytochrome c, caspase-3, and caspase-9 in the cellular response to compound 4d.
# HeLa cells = assay: Annexin V-FITC/PI dual staining apoptosis assay; type: cell-based, human; conditions: 48 h, control 6.44
# Procedure: The extent of apoptosis was quantitatively measured using Annexin V-FITC/PI dual staining assay. HeLa cells were seeded into a six-well plate at 5 × 10^5 cells per well in 10% foetal calf serum (FBS)-DMEM into six-well plates and treated with different concentrations of the indicated compound 4d for 48 h. The cells were detached with 0.25% trypsin, washed with ice-cold PBS for twice and then resuspended in 1 × Binding buffer ([…]). The cells were stained with 5 μL of Annexin V-FITC and 5 μL of PI ([…]) to each tube. The cells were gently vortexed and incubated in the dark at room temperature for 15 min and then keep them at 4 °C. The samples were analysed by a flow cytometer (Becton-Dickinson FACSCalibur, Totowa, NJ, USA) and data were analysed using the FlowJo software.
# The Annexin V-FITC/PI dual staining assay on HeLa cells treated with compound 4d was carried out to examine the association of compound 4d-mediated cytotoxicity with induction of apoptosis.
smiles,measurement,setting,value
"CC(=O)NNC(=O)C12CCC(C)C(C)C1C1=CCC3C4(C)Cc5cc6cc(Cl)ccc6nc5C(C)(C)C4CCC3(C)C1(C)CC2 (stereo not drawn) [Compound 4d, N-[5′-chloro-ursa-12-en-(2,3)-quinoline-28-oyl]-acetohydrazide]",level of caspase-3,[1],significantly increased
same,level of caspase-9,[1],significantly increased
same,ratio of Bax/Bcl-2,[1],increased in a dose-dependent manner
same,expression level of Bax,[1]; compared with control,elevated
same,expression level of Bcl-2,[1]; compared with control,decreased
same,level of cytochrome c,[1]; cytosol,significantly increased
same,percentage of early and late apoptotic cells,HeLa cells; 0.05 μM,37.56%
same,percentage of early and late apoptotic cells,HeLa cells; 0.1 μM,58.31%
same,percentage of early and late apoptotic cells,HeLa cells; 0.2 μM,74.22%

# — PMC6522941, “Design, synthesis, and anticancer evaluation of novel quinoline derivatives of ursolic acid with hydrazide, oxadiazole, and thiadiazole moieties as potent MEK inhibitors” (Journal of Enzyme Inhibition and Medicinal Chemistry, 2019)
